According to ChEMBL document CHEMBL1201862, “PubChem BioAssay data set” (2004):
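A five-concentration, 48-hour dose response in 96-well plates underlies each endpoint, interpolated linearly between surrounding concentrations. At the GI50, growth is halved.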 Activity calls are given as the source filed them. Cut-off read from the data, not from the text of the source: active = GI50 up to about 1.1 µM and inactive = higher.

Legend:
Assay in all cases: growth of human tumour cells (NCI), 48 h
SF-268 = system: SF-268
SK-MEL-28 = system: SK-MEL-28
OVCAR-8 = system: OVCAR-8
U-251 = system: U-251
M19-MEL = system: M19-MEL
TK-10 = system: TK-10
UACC-62 = system: UACC-62
CAKI-1 = system: CAKI-1
SN12C = system: SN12C
SNB-75 = system: SNB-75
SR = system: SR
MOLT-4 = system: MOLT-4
HCC 2998 = system: HCC 2998
NCI-H460 = system: NCI-H460
SF-295 = system: SF-295
HL-60 = system: HL-60
SK-OV-3 = system: SK-OV-3
IGROV-1 = system: IGROV-1

| SMILES | GI50 (SF-268) | GI50 (SK-MEL-28) | GI50 (OVCAR-8) | GI50 (U-251) | GI50 (M19-MEL) | GI50 (TK-10) | GI50 (UACC-62) | GI50 (CAKI-1) | GI50 (SN12C) | GI50 (SNB-75) | GI50 (SR) | GI50 (MOLT-4) | GI50 (HCC 2998) | GI50 (NCI-H460) | GI50 (SF-295) | GI50 (HL-60) | GI50 (SK-OV-3) | GI50 (IGROV-1) |
| --- | --- | --- | --- | --- | --- | --- | --- | --- | --- | --- | --- | --- | --- | --- | --- | --- | --- | --- |
| Cc1c[nH]c2c1C13CC1CN(C(=O)c1cc4cc(NC(=O)c5cc6ccccc6o5)ccc4[nH]1)C3=CC2=O (stereo not drawn) | < 0.001 µM (active) | < 0.001 µM (active) | < 0.001 µM (active) | < 0.001 µM (active) | < 0.001 µM (active) | < 0.001 µM (active) | < 0.001 µM (active) | < 0.001 µM (active) | < 0.001 µM (active) | < 0.001 µM (active) | < 0.001 µM (active) | < 0.001 µM (active) | < 0.001 µM (active) | < 0.001 µM (active) | < 0.001 µM (active) | – | – | – |
| Oc1ccc2occ3c2c1CCC3 | – | > 100 µM (inactive) | > 100 µM (inactive) | > 100 µM (inactive) | > 100 µM (inactive) | > 100 µM (inactive) | 95.9 µM (inactive) | > 100 µM (inactive) | > 100 µM (inactive) | > 100 µM (inactive) | – | > 100 µM (inactive) | > 100 µM (inactive) | > 100 µM (inactive) | > 100 µM (inactive) | 44.4 µM (inactive) | > 100 µM (inactive) | > 100 µM (inactive) |
| COc1ccc(/C(=C/n2ccnc2)C(=O)c2ccc(OC)c(OC)c2)cc1 | > 100 µM (inactive) | > 100 µM (inactive) | > 100 µM (inactive) | > 100 µM (inactive) | > 100 µM (inactive) | > 100 µM (inactive) | 39.3 µM (inactive) | > 100 µM (inactive) | > 100 µM (inactive) | > 100 µM (inactive) | > 100 µM (inactive) | > 100 µM (inactive) | > 100 µM (inactive) | > 100 µM (inactive) | – | > 100 µM (inactive) | – | – |
| C=CCN1/C(=C2\SC(=S)N(c3ccc(C)cc3)C2=O)Sc2c1ncn(C)c2=O | > 100 µM (inactive) | – | 95.1 µM (inactive) | > 100 µM (inactive) | > 100 µM (inactive) | > 100 µM (inactive) | > 100 µM (inactive) | > 100 µM (inactive) | > 100 µM (inactive) | 40.7 µM (inactive) | 84.7 µM (inactive) | > 100 µM (inactive) | 47.6 µM (inactive) | > 100 µM (inactive) | 90.8 µM (inactive) | 83.4 µM (inactive) | > 100 µM (inactive) | > 100 µM (inactive) |
| COC(=O)C(C(=O)C(=O)Nc1ccccc1C(C)=O)c1nc2ccc(Cl)cc2nc1O (stereo not drawn) | > 100 µM (inactive) | > 100 µM (inactive) | > 100 µM (inactive) | > 100 µM (inactive) | > 100 µM (inactive) | > 100 µM (inactive) | > 100 µM (inactive) | > 100 µM (inactive) | > 100 µM (inactive) | 99.5 µM (inactive) | – | > 100 µM (inactive) | > 100 µM (inactive) | > 100 µM (inactive) | > 100 µM (inactive) | > 100 µM (inactive) | > 100 µM (inactive) | > 100 µM (inactive) |
| Cc1c(Cl)cccc1NC(=O)C(=O)c1c(O)c2ccc(O)cc2oc1=O | > 100 µM (inactive) | > 100 µM (inactive) | > 100 µM (inactive) | > 100 µM (inactive) | > 100 µM (inactive) | > 100 µM (inactive) | > 100 µM (inactive) | > 100 µM (inactive) | > 100 µM (inactive) | > 100 µM (inactive) | > 100 µM (inactive) | > 100 µM (inactive) | > 100 µM (inactive) | > 100 µM (inactive) | > 100 µM (inactive) | > 100 µM (inactive) | > 100 µM (inactive) | > 100 µM (inactive) |
| O=C1C(c2ccccc2)=C(c2ccccc2)C(c2ccc(Sc3ccc(C4=C(c5ccccc5)C(=O)C(c5ccccc5)=C4c4ccccc4)cc3)cc2)=C1c1ccccc1 | > 100 µM (inactive) | – | > 100 µM (inactive) | 48.6 µM (inactive) | > 100 µM (inactive) | > 100 µM (inactive) | > 100 µM (inactive) | > 100 µM (inactive) | > 100 µM (inactive) | 31.3 µM (inactive) | > 100 µM (inactive) | > 100 µM (inactive) | – | > 100 µM (inactive) | > 100 µM (inactive) | > 100 µM (inactive) | > 100 µM (inactive) | > 100 µM (inactive) |
| Cc1nc2ccccc2c(=O)n1/N=C(\N=N\c1cc(Cl)ccc1Cl)c1ccc(N(C)C)cc1 | 41.5 µM (inactive) | > 100 µM (inactive) | 40.9 µM (inactive) | 38.1 µM (inactive) | > 100 µM (inactive) | 88.3 µM (inactive) | 34.5 µM (inactive) | 34 µM (inactive) | 58.6 µM (inactive) | – | – | 25.2 µM (inactive) | – | 45.7 µM (inactive) | – | 22.9 µM (inactive) | 28.2 µM (inactive) | 49.9 µM (inactive) |
